Results taken from patent US9815788B2, “Anti-angiogenic compounds” (University College Dublin National University of Ireland, …, priority 2012, dated 2017).
Counter-ions that a name gives are not always drawn.

Key:
[1] = system: OE33R radio-resistant oesophageal adenocarcinoma cells; test: Surviving fraction (colony formation), OE33R; type: cell-based, human; details: 10 μM, 24 hours
Description: (§1) OE33P radio-sensitive and OE33R radio-resistant oesophageal adenocarcinoma cells were used to test the effects of the compounds 11B HCl and 11B CC11 HCl on cell survival. Cells were maintained in RPMI media supplemented with 10% foetal calf serum, penicillin (100 U/ml) and streptomycin (100 μg/ml). Cells were seeded in 6 well plates and left to incubate for 24 hours. The media was replaced with solutions containing 10 μM of 11B HCl, 11B CC11 HCl or fresh media as a control. After 24 hours of treatment, media was replaced. When control colonies had grown sufficiently large, the media was disposed and the cells washed with PBS. The cells were fixed with methanol and stained with crystal violet. The surviving fraction, the ability of the cells to form colonies was then determined.
as §1, with “replaced and cells were subjected to 2Gy radiation.” for “replaced.”, “Surviving” for “The surviving”
as §1, with “hours. The cells were subjected to 2Gy irradiation and the media was” for “hours. The media was”, “crystal violet. Surviving fraction, the” for “crystal violet. The surviving fraction, the”

[2] = system: OE33P radio-sensitive oesophageal adenocarcinoma cells; test: Quantification of glycolysis (ECAR, Seahorse), OE33P; type: cell-based, human; details: 10 μM, 24 hours
Description: (§2) OE33P radio-sensitive and OE33R radio-resistant oesophageal adenocarcinoma cells were used to test the effects of compounds 11B HCl, 11B CC11 HCl, 11B CC16 HCl, 11B 471 and 11B 268 on glycolysis. Cells were maintained in RPMI media supplemented with 10% foetal calf serum, penicillin (100 U/ml) and streptomycin (100 μg/ml). A total of 11,000 or 13,000 cells, in 100 μl media, were seeded per well in 24 well plates and left to incubate for 24 hours, with an additional 150 μl media added after 5 hours. The media was replaced with solutions containing 10 μM of 11B HCl, 11B CC1 HCl, 11B CC16 HCl, 11B 471, 11B 268 or fresh media as a control. Each drug had 6 replicates. After 24 hours of treatment, media was replaced with modified DMEM supplemented with 0.5 mM glucose. Rates of glycolysis were determined using Seahorse Biosciences metabolism technology. The media was disposed and the cells washed with PBS. The cells were fixed with 1% glutaraldehyde for 15 minutes and then stained with crystal violet for 30 minutes. The plates were blotted and dried overnight. The cells were resuspended with 1% TritonX-100 and shaken for 15 minutes. The absorbance was read on a spectrophotometer at 590 nm. Rates of glycolysis were then normalised to cell number.
as §2, with “radiosensitive” for “radio-sensitive and OE33R radio-resistant”, “the compound 11B_ZHCl” for “compounds 11B HCl, 11B CC11 HCl, 11B CC16 HCl, 11B 471 and 11B 268”, “11,000” for “11,000 or 13,000”, “11B_ZHCl” for “11B HCl, 11B CC1 HCl, 11B CC16 HCl, 11B 471, 11B 268”, “treatment” for “drug”, “number. No changes in ECAR were detected in OE33R treated cells.” for “number.”

[3] = system: OE33P radio-sensitive oesophageal adenocarcinoma cells; test: Surviving fraction (colony formation), OE33P; type: cell-based, human; details: 10 μM, 24 hours
Description: as §1
as §1, with “replaced and cells were subjected to 2Gy radiation.” for “replaced.”, “Surviving” for “The surviving”
OE33P radio-sensitive and OE33R radio-resistant oesophageal adenocarcinoma cells were used to test the effects of the compounds 11B HCl and 11B CC11 HCl on cell survival. Cells were maintained in RPMI media supplemented with 10% foetal calf serum, penicillin (100 U/ml) and streptomycin (100 μg/ml). Cells were seeded in 6 well plates and left to incubate for 24 hours. […] Surviving fraction, the ability of the cells to form colonies was then determined.

[4] = system: zebrafish hyaloid vasculature; test: Quantification of primary hyaloid vasculature branch number in Tg(fli1:EGFP) zebrafish; type: in vivo; details: for dose-dependent inhibition of development of hyaloid vessels: decreasing doses 20, 10, 7.5, 5, 2.5, 1 and/or 0.5 μM, HCl salt; for inhibition of developmental angiogenesis of the hyaloid vasculature (number of primary hyaloid vessels): typically 10 μM or 5 μM, from 24 hpf, vs DMSO control
Summary of the method: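 Tg(fli1:EGFP) larvae raised at 28° C on a 14/10 hr light cycle, euthanised and fixed overnight in 4% PFA at 4° C. Dissected lenses imaged by epi-fluorescence; hyaloid vessel patterning compared with DMSO controls and the archetypal pattern.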

[5] = system: OE33R radio-resistant oesophageal adenocarcinoma cells; test: Quantification of glycolysis (ECAR, Seahorse), OE33R; type: cell-based, human; details: 10 μM, 24 hours
Description: as §2
OE33P radiosensitive oesophageal adenocarcinoma cells were used to test the effects of the compound 11B_ZHCl on glycolysis. Cells were maintained in RPMI media supplemented with 10% foetal calf serum, penicillin (100 U/ml) and streptomycin (100 μg/ml). A total of 11,000 cells, in 100 μl media, were seeded per well in 24 well plates and left to incubate for 24 hours, with an additional 150 μl media added after 5 hours. The media was replaced with solutions containing 10 μM of 11B_ZHCl or fresh media as a control. Each treatment had 6 replicates. After 24 hours of treatment, media was replaced with modified DMEM supplemented with 0.5 mM glucose. Rates of glycolysis were determined using Seahorse Biosciences metabolism technology. […] The absorbance was read on a spectrophotometer at 590 nm. […] No changes in ECAR were detected in OE33R treated cells.

[6] = treated following 2Gy irradiation
[7] = treated prior to 2Gy irradiation

SMILES | surviving fraction ([1]; no irradiation) | surviving fraction [1, 6] | surviving fraction [1, 7] | extracellular acidification rate (ECAR), a measure of glycolysis [2] | surviving fraction ([3]; no irradiation) | dose-dependent inhibition of development of hyaloid vessels [4] | dose-dependent inhibition of development of hyaloid vessels ([4]; listed as 11B-CC11 HCl) | inhibition of developmental angiogenesis of the hyaloid vasculature (number of primary hyaloid vessels) [4] | extracellular acidification rate (ECAR), a measure of glycolysis [5] | surviving fraction [3, 7] | extracellular acidification rate (ECAR), a measure of glycolysis ([2]; HCl salt) | extracellular acidification rate (ECAR), a measure of glycolysis ([2]; listed as 11B_ZHCl, HCl salt)
C/C(=C\c1ccccc1O)c1ccc2ccccc2n1.Cl [Compound 11B_CC11_HCl, (E)-2-(2-Quinolin-2-yl-propenyl)-phenol HCl salt] | significantly reduce | significantly reduce | significantly reduce | significantly reduce | significantly reduce | inhibit developmental angiogenesis of zebrafish hyaloid vasculature in a dose-dependent statistically significant manner | dose-dependent effect | inhibit developmental angiogenesis of the zebrafish hyaloid vasculature in a statistically significant manner |  |  |  | 
Oc1ccccc1/C=C/c1ccc2ccccc2n1 [11B HCl] | significantly reduce | significantly reduce | significantly reduce | significantly reduce | significantly reduce |  |  |  | significantly reduce | significantly reduces |  | 
Cl.Oc1ccccc1/C=C\c1ccc2ccccc2n1 [Compound 11B_Z_HCl, (Z)-2-(2-(Quinolin-2-yl)vinyl) phenol HCl salt] |  |  |  |  |  |  |  | inhibit developmental angiogenesis of the zebrafish hyaloid vasculature in a statistically significant manner | No changes |  | significantly reduces | Significantly Reduces
